Results on 24 compounds are retold here after US20050197350A1, “Novel quinoline, tetrahydroquinazoline, and pyrimidine derivatives and methods of treatment related to the use thereof” (TAISHO PHARMACEUTICAL CO., LTD., priority 2003, published 2005).

Counter-ions that a name gives are not always drawn.

In the first test the target is MCH receptor (Homo sapiens, UniProt Q99705). The test is described as follows: High throughput functional screening FLIPR/FDSS6000 (intracellular Ca2+ evoked by MCH). It is filed as cell-based. The note with it: FLIPR/FDSS, antagonist activity vs 50 nM MCH; class by percent of control at 10^−7 M or IC50; read-out: class. Summed up: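 For antagonist testing, compound-treated cells (30 min, 37 °C) were stimulated with 50 nM MCH and intracellular Ca2+ followed by Fluo4 fluorescence on FLIPR/FDSS6000. Receptor was a constitutively active, non-endogenous MCH receptor; dye loading 4 μM Fluo4-AM, 1 h, 37 °C.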
For the compound `Cc1cc(N[C@H]2CC[C@@H](C(=O)N[C@@H](C)c3cccc(C(F)(F)F)c3)CC2)nc2ccccc12` [Example 3315, cis-4-[(4-methylquinolin-2-yl)amino]-N-{(1S)-1-[3-(trifluoromethyl)phenyl]ethyl}cyclohexanecarboxamide], the IC50 was less than 50 nM. The same measure, in the same setting: for `Cc1cnc(N[C@H]2CC[C@@H](NC(=O)c3cccnc3S(=O)(=O)c3cccc(Cl)c3)CC2)nc1N(C)C` [Example 3283, 2-[(3-chlorophenyl)sulfonyl]-N-(cis-4-{[4-(dimethylamino)-5-methylpyrimidin-2-yl]amino}cyclohexyl)nicotinamide] the value was 50 to 200 nM; for `Cc1cnc(N[C@H]2CC[C@@H](NC(=O)N(C)c3ccccc3F)CC2)nc1N(C)C` [Example 3346, N′-(cis-4-{[4-(dimethylamino)-5-methylpyrimidin-2-yl]amino}cyclohexyl)-N-(2-fluorophenyl)-N-methylurea], greater than 200 nM. On the same count and under the same terms, with `CCN(C(=O)N[C@H]1CC[C@@H](Nc2ncc(C)c(N(C)C)n2)CC1)c1ccc(OC(F)(F)F)cc1` [Example 3351, N′-(cis-4-{[4-(dimethylamino)-5-methylpyrimidin-2-yl]amino}cyclohexyl)-N-ethyl-N-[4-(trifluoromethoxy)-phenyl]urea] the figure was less than 50 nM; with `Cc1cnc(N[C@H]2CC[C@@H](NC(=O)Nc3ccccc3F)CC2)nc1N(C)C` [Example 3324, N-(cis-4-{[4-(dimethylamino)-5-methylpyrimidin-2-yl]amino}cyclohexyl)-N′-(2-fluorophenyl)urea], 50 to 200 nM.

For `Cc1cnc(N[C@H]2CC[C@@H](C(=O)N[C@@H](C)c3cc(C(F)(F)F)cc(C(F)(F)F)c3)CC2)nc1N(C)C` [Example 3293, cis-N-{(1S)-1-[3,5-bis(trifluoromethyl)phenyl]ethyl}-4-{[4-(dimethylamino)-5-methylpyrimidin-2-yl]amino}cyclohexanecarboxamide], the IC50 is greater than 200 nM.

The test is the same for the next values; noted with them: FLIPR/FDSS, antagonist activity vs 50 nM MCH; class by percent of control at 10^−7 M or IC50; table after the classification; read-out: class.
For the compound `CN(C)c1ccnc(N[C@H]2CC[C@@H](NC(=O)c3ccc(F)c(Cl)c3)CC2)n1` [Example 3206, 3-Chloro-N-[cis-4-(4-dimethylamino-pyrimidin-2-ylamino)-cyclohexyl]-4-fluoro-benzamide hydrochloride], the IC50 was less than 50 nM. Consider `O=C(N[C@H]1CC[C@@H](Nc2ccc3ccccc3n2)CC1)c1cccnc1Cl` [Example 3037, 2-Chloro-N-[cis-4-(quinolin-2-ylamino)-cyclohexyl]-nicotinamide hydrochloride], for which the IC50 is greater than 200 nM. In the case of `Cc1cc(N[C@H]2CC[C@@H](NC(=O)c3cncc(F)c3)CC2)nc2ccccc12` [Example 3397, 5-Fluoro-N-[cis-4-(4-methyl-quinolin-2-ylamino)-cyclohexyl]-nicotinamide], the IC50 is less than 50 nM.

As for `Cc1cc(C(=O)N[C@H]2CC[C@@H](Nc3cc(C)c4ccccc4n3)CC2)ccc1F` [Example 3080, 4-Fluoro-3-methyl-N-[cis-4-(4-methyl-quinolin-2-ylamino)-cyclohexyl]-benzamide hydrochloride], the IC50 is less than 50 nM.

`Cc1cnc(N[C@H]2CC[C@@H](NC(=O)c3ccc(Cl)c(F)c3)CC2)nc1N(C)C` [Example 3387, 4-Chloro-N-[cis-4-(4-dimethylamino5-methyl-pyrimidin-2-ylamino)-cyclohexyl]3-fluoro-benzamide hydrochloride]: the IC50 is less than 50 nM. With `Cc1cc(N[C@H]2CC[C@@H](NC(=O)c3ccc(-n4ccnc4)nc3)CC2)nc2ccccc12` [Example 3187, 6-Imidazol-1-yl-N-[cis-4-(4-methyl-quinolin-2-ylamino)-cyclohexyl]-nicotinamide dihydrochloride], the IC50 is greater than 200 nM. For the compound `Cc1cc(N[C@H]2CC[C@@H](NC(=O)c3cccnc3O)CC2)nc2ccccc12` [Example 3173, 2-Hydroxy-N-[cis-4-(4-methyl-quinolin-2-ylamino)-cyclohexyl]-nicotinamide hydrochloride], the IC50 is greater than 200 nM. Consider `Cc1cc(N[C@H]2CC[C@@H](NC(=O)COc3ccc(Cl)c(Cl)c3)CC2)nc2ccccc12` [Example 3101, 2-(3,4-Dichloro-phenoxy)-N-[cis-4-(4-methyl-quinolin-2-ylamino)-cyclohexyl]-acetamide hydrochloride], for which the IC50 was less than 50 nM.

Consider `O=C(N[C@H]1CC[C@@H](Nc2ccc3ccccc3n2)CC1)c1cccnc1Oc1ccc(Br)cc1` [Example 3058, 2-(4-Bromo-phenoxy)-N-[cis-4-(quinolin-2-ylamino)-cyclohexyl]-nicotinamide hydrochloride], for which the IC50 was less than 50 nM. Take `CN(C)c1nc(N[C@H]2CC[C@@H](NC(=O)c3csc([N+](=O)[O-])c3)CC2)nc2c1CCCC2` [Example 3193, 5-Nitro-thiophene-3-carboxylic acid [cis-4-(4-dimethylamino-5,6,7,8-tetrahydro-quinazolin-2-ylamino)-cyclohexyl]-amide hydrochloride]: the IC50 is less than 50 nM. Consider `COc1ccc(Oc2ncccc2C(=O)N[C@H]2CC[C@@H](Nc3cc(C)c4ccccc4n3)CC2)cc1` [Example 3095, 2-(4-Methoxy-phenoxy)-N-[cis-4-(4-methyl-quinolin-2-ylamino)-cyclohexyl]-nicotinamide hydrochloride], for which the IC50 was less than 50 nM. Regarding `Cc1ccc(Oc2ncccc2C(=O)N[C@H]2CC[C@@H](Nc3ccc4ccccc4n3)CC2)cc1` [Example 3056, N-[cis-4-(Quinolin-2-ylamino)-cyclohexyl]-2-p-tolyloxy-nicotinamide hydrochloride], the IC50 is less than 50 nM. As to `CN(C)c1nc(N[C@H]2CC[C@@H](NC(=O)c3ccc(F)c(F)c3)CC2)ncc1-c1ccccc1` [Example 3138, N-[cis-4-(4-Dimethylamino-5-phenyl-pyrimidin-2-ylamino)-cyclohexyl]-3,4-difluoro-benzamide hydrochloride], the IC50 was in the range of 50 to 200 nM. Consider `O=C(N[C@H]1CC[C@@H](Nc2ccc3ccccc3n2)CC1)c1cc(C(F)(F)F)cc(C(F)(F)F)c1` [Example 3148, N-[cis-4-(Quinolin-2-ylamino)-cyclohexyl]-3,5-bis-trifluoromethyl-benzamide hydrochloride], for which the IC50 was greater than 200 nM. `Cc1cc(N[C@H]2CC[C@@H](NC(=O)c3cccc(O)c3)CC2)nc2ccccc12` [Example 3160, 3-Hydroxy-N-[cis-4-(4-methyl-quinolin-2-ylamino)-cyclohexyl]-benzamide hydrochloride]: the IC50 was less than 50 nM. Consider `CCc1cc(N(C)C)nc(N[C@H]2CC[C@@H](NC(=O)c3ccc(F)c(F)c3)CC2)n1` [Example 3231, N-[cis-4-(4-Dimethylamino-6-ethyl-pyrimidin-2-ylamino)-cyclohexyl]-3,4-difluoro-benzamide hydrochloride], for which the IC50 is 50 to 200 nM. On the same count and under the same terms, for `CN(CC(=O)N[C@H]1CC[C@@H](Nc2ccc3ccccc3n2)CC1)c1ccccc1` [Example 3066, C-(Methyl-phenyl-amino)-N-[cis-4-(quinolin-2-ylamino)-cyclohexyl]-acetamide dihydrochloride] the value was less than 50 nM. Turning to `Cn1cc([N+](=O)[O-])cc1C(=O)N[C@H]1CC[C@@H](Nc2ccc3ccccc3n2)CC1` [Example 3042, 1-Methyl-4-nitro-1H-pyrrole-2-carboxylic acid [cis-4-(quinolin-2-ylamino)-cyclohexyl]-amide hydrochloride], the IC50 was less than 50 nM.
